Results from patent US12048737B2, “Use of a vaccine targeting a cryptic tert epitope, for treating cancer in a HLA-A*0201-positive patient having a non-immunogenic tumor expressing tert” (KRIPTIC PHARMACEUTICALS LIMITED, priority 2017, dated 2024).

System: NSCLC tumors expressing TElomerase Reverse Transcriptase (TERT)
Assay: Vx-001-201 randomized double blind phase IIb study: clinical outcome (OS, TTF, 12 months survival)
Type: in vivo, human
Text: The Vx-001-201 study is a randomized, double blind multicenter study done in 70 centers in France, Germany, Spain, Italy, Greece, Poland, Romania and Czech Republic. Key eligibility criteria were a) non small cell lung cancer (NSCLC), b) stage IV or recurrent stage I-III, c) disease control after platinum based first line chemotherapy according to RECIST 1.1 criteria, d) HLA-A*0201 positivity, e) tumors expressing TElomerase Reverse Transcriptase (TERT), f) ECOG 0 or 1 g) absence of brain metastasis.
• a) Principal endpoint: overall survival (OS) measured from randomization • b) Secondary endpoints: • Time to Treatment Failure (TTF) measured from randomization • OS at 12 months • c) Main exploratory objectives • Evaluation of vaccine induced specific immune response • Correlation between vaccine specific immune response and clinical response Procedures and Vaccination Protocol
Patients who fulfilled all inclusion criteria were randomized within 4 weeks after the end of first line chemotherapy.
The vaccination protocol consisted in six vaccinations at three week interval. The optimized Vx-001/TERT572Y was used in the first two vaccinations and the native Vx-001/TERT572 in the following four vaccinations. Patients who continued controlling their disease after the sixth vaccination received boost vaccination with the Vx-001/TERT572 every three months. Vaccination was stopped at disease progression (FIG. 1).
The primary and secondary endpoints were analysed in the Full Analysis Set (FAS) composed of all patients who fulfilled the five main criteria a) NSCLC, b) stage IV or recurrent stage I-III, c) disease control after first line chemotherapy, d) HLA-A*0201 positivity and e) TERT expressing tumors.
We used the Kaplan-Meier method to estimate OS and TTF in each arm and a Cox proportional hazards regression model to estimate Hazard Ratio (HR) relating OS and TTF to the treatment effect.

[1] = FAS, all patients, Vx-001 vs placebo
[2] = FAS, OR to chemotherapy (n = 87)
[3] = FAS, SD to chemotherapy (n = 103)
[4] = Vx-001 responders vs non-responders
[5] = patients with no natural immunity
[6] = patients without natural immunity, Vx-001 vs placebo
[7] = vaccinated patients, Vx-001 immune non-responders
[8] = vaccinated patients, Vx-001 immune responders
[9] = with natural immunity, assessed before 26 days after end of chemotherapy
[10] = with natural immunity, assessed before 26 days after end of chemotherapy, Vx-001 vs placebo
[11] = within Vx-001 treated (n = 80): natural immunity vs no natural immunity
[12] = without natural immunity, assessed less than 26 days after end of chemotherapy
[13] = without natural immunity, assessed less than 26 days after end of chemotherapy, Vx-001 vs placebo
[14] = without natural immunity, 1st line CARBO (n = 74)
[15] = without natural immunity, 1st line CARBO (n = 74), Vx-001 vs placebo
[16] = without natural immunity, 1st line CDDP (n = 46)

## Vx-001: vaccine composed of two nine amino acid peptides, TERT572 and TERT572Y, administered separately with the adjuvant Montanide ISA51 VG (chain 1 RLFFYRKSV; chain 2 YLFFYRKSV; Montanide ISA51 VG adjuvant; peptide from a human protein; optimized peptide)
FAS, all patients
  12 months survival: 58%
  Median OS: 14.3 months
  Median TTF: 3.6 months
[1]
  HR (OS): 0.97
  HR (TTF): 0.88
FAS, 1st line CARBO (n = 119)
  12 months OS: 58.2%
  Median survival (OS): 14.3 months
FAS, 1st line CARBO (n = 119), Vx-001 vs placebo
  HR (OS): 1.06
FAS, 1st line CDDP (n = 69)
  12 months OS: 59%
  Median survival (OS): 15 months
FAS, 1st line CDDP (n = 69), Vx-001 vs placebo
  HR (OS): 0.81
FAS, <65 years (n = 92)
  12 months OS: 57.7%
  Median survival (OS): 13.4 months
FAS, <65 years (n = 92), Vx-001 vs placebo
  HR (OS): 1.2
FAS, >65 years (n = 98)
  12 months OS: 59%
  Median survival (OS): 15 months
FAS, >65 years (n = 98), Vx-001 vs placebo
  HR (OS): 0.78
FAS, Female (n = 59)
  12 months OS: 53.3%
  Median survival (OS): 13.2 months
FAS, Female (n = 59), Vx-001 vs placebo
  HR (OS): 1.52
FAS, Male (n = 131)
  12 months OS: 61%
  Median survival (OS): 15 months
FAS, Male (n = 131), Vx-001 vs placebo
  HR (OS): 0.81
FAS, NSQ (n = 118)
  12 months OS: 55%
  Median survival (OS): 13.4 months
FAS, NSQ (n = 118), Vx-001 vs placebo
  HR (OS): 0.88
[2]
  12 months OS: 69%
  Median survival (OS): 15.3 months
FAS, OR to chemotherapy (n = 87), Vx-001 vs placebo
  HR (OS): 0.89
[3]
  12 months OS: 52%
  Median survival (OS): 14.3 months
FAS, SD to chemotherapy (n = 103), Vx-001 vs placebo
  HR (OS): 0.99
FAS, SQ (n = 72)
  12 months OS: 64%
  Median survival (OS): 14.3 months
FAS, SQ (n = 72), Vx-001 vs placebo
  HR (OS): 1.13
[4]
  HR (OS): 0.39
  HR (TTF): 0.41
Patients with natural immunity
  12 months OS: 65%
  Median TTF: 2.9 months
Patients with natural immunity (FIG. 6)
  OS and 12 months survival, placebo vs Vx-001: no difference
Patients with natural immunity against TERT572
  Median survival (OS): 15.5 months
[5]
  12 months OS: 55%
  Median TTF: 4.1 months
Patients with no natural immunity against TERT572 (non-immunogenic tumors)
  Median survival (OS): 13.2 months
[6]
  HR (OS): 0.80
  HR (TTF): 0.75
[7]
  Median OS: 13.4 months
  Median TTF: 3.6 months
[8]
  Median OS: 21.3 months
  Median TTF: 9.1 months
[9]
  Median OS: 15.3 months
  Median TTF: 2.2 months
[10]
  HR (OS): 1.54
  HR (TTF): 1.98
[11]
  HR (OS): 0.91
  HR (TTF): 0.83
Without natural immunity, assessed later than 26 days after chemotherapy
  Median OS: 13.2 months
Without natural immunity, assessed later than 26 days after chemotherapy, Vx-001 vs placebo
  HR (OS): 0.96
[12]
  Median OS: 11.7 months
  Median TTF: 4.1 months
[13]
  HR (OS): 0.58
  HR (TTF): 0.62
[14]
  12 months OS: 53%
  Median TTF: 3.7 months
  Median survival (OS): 13.1 months
[15]
  HR (OS): 1.03
  HR (TTF): 0.80
[16]
  12 months OS: 59%
  Median TTF: 4.1 months
  Median survival (OS): 13.4 months
Without natural immunity, 1st line CDDP (n = 46), Vx-001 vs placebo
  HR (OS): 0.51
